Data reported in article PMC6327030 (Nature Communications, 2019).
Read-outs that look alike come from different tables or passages of the source.

How the values were obtained:
[1] = target: T1, baculosome-derived full-length SQLE (Homo sapiens, UniProt Q14534); experiment: Biochemistry assay of SQLE activity with SQLE baculosomes (LC-MS/MS detection of 2,3-oxidosqualene); assay type: biochemical; conditions: for mechanism of inhibition with respect to squalene substrate: squalene varied from 50 to 0.39 μM, fixed inhibitor concentrations
T1 construct: we overexpressed full-length SQLE in Sf9 cells using a baculovirus system; made in house; host or cells: Sf9 insect cells (baculovirus), membrane preparation (baculosomes)
T1 sequence (Q14534 whole entry): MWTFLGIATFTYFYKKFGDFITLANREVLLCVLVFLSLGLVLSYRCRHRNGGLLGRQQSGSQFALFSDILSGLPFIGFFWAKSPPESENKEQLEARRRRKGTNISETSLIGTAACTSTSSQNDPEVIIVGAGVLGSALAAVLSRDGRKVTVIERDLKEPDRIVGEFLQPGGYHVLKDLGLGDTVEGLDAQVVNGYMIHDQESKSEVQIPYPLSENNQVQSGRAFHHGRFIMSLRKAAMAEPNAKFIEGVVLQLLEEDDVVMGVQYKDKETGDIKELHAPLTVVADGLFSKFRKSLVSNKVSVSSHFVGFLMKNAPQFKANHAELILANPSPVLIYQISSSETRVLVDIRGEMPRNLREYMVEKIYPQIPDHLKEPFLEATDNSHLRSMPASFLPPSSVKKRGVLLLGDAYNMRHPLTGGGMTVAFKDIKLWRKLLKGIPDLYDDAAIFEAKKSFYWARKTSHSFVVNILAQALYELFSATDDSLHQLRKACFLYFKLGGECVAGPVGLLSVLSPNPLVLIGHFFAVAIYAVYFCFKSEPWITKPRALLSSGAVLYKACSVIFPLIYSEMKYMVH
Experimental: pFastBac1-SQLE was transformed into DH10Bac E. coli (Thermo Fisher) for transposition into bacmid, and positive clones were selected on a blue/white LB agar plate. Recombinant bacmid as isolated from positive clones with the PureLink Hipure Plasmid DNA miniprep kit (Thermo Fisher) and transfected into Sf9 cells (Thermo Fisher) to generate recombinant virus stocks, which were amplified further before Sf9 infection at a multiplicity of infection of two. Infected cells were harvested 72 h post infection and resuspended in phosphate buffered saline, then disrupted by sonication. The cell lysate was clarified by centrifugation at 1500× g for 10 min, the supernatant was further centrifuged at 10,000× g for another 10 min to remove cell debris; and then the supernatant was harvested and centrifuged at 100,000× g for 90 min. The pellet of SQLE baculosomes was collected and homogenized in the buffer (50 mM potassium phosphate, 20% Glycerol, pH7.0) by micro-electric homogenizer (IKA Works, Germany). The protein concentration was determined by the Bradford method. SQLE baculosomes were aliquoted and stored at −80 ℃. The abundance of SQLE in the baculosomes compared to other subcellular fractions was evaluated by immunoblotting against the N-terminal his-tag. Y195A, and Y195F mutant baculosomes were prepared as described above from Sf9 cells infected with engineered viruses.
All biochemistry assay buffers contained 100 mM Tris, 0.1% triton X-100, 1 mM EDTA, 0.1 mM FAD and 1 mM NADPH. […] The reaction was quenched by adding 100 μL of 10 mM ammonium acetate buffer, followed by addition of 600 μL ethyl acetate containing 0.4 mg/mL butylated hydroxytoluene (BHT) to prevent oxidation. The mixture was vortexed for 30 min to extract 2,3-oxidosqualene, then centrifuged at 4000 rpm for 10 min. The supernatant was transferred to a new plate for LC-MS/MS detection. […] Kinetic analysis for HLMs (Sekisui Xenotech, LLC, Kansas City, KS) was performed as for baculosomes, with HLM concentration at 0.5 mg/ml. Kinetic analysis for recombinant SQLE was performed as for baculosomes, with the addition of 1.5 μg/ml recombinant P450R (Sigma-Aldrich).
Samples were dried down under nitrogen and then reconstituted with 70 μL of 0.2 mg/mL BHT in acetonitrile. An aliquot of 7.5 μL was injected into the UPLC-MS/MS system. The instrument setup consisted of an AB Sciex API-6500 Mass Spectrometer (AB Sciex, USA) equipped with a Waters UPLC Acquity (Waters, USA). The UPLC separation was performed on an ACQUITY UPLC BEH C18 (2.1 × 50 mm, 1.7 µm, Waters) at 40 ℃. Formic acid in water (0.1%, v/v, mobile phase A) and a mixture of acetonitrile and isopropanol (80:20, v/v with 0.1% formic acid, mobile phase B) were employed as the mobile phase. An isocratic elution of 98% mobile phase B was used and run time was 1.5 min. The flow rate of mobile phase was set at 0.6 mL/min.

[2] = tested on: human SQLE; conditions: cited from earlier work; for IC50: previously reported
[3] = target: T2, endogenous SQLE in human liver microsomes (Homo sapiens, UniProt Q14534); experiment: HLM assay of SQLE activity (human liver microsomes, LC-MS/MS); assay type: biochemical
T2 construct: human liver microsomes (HLM) which have the advantage of providing endogenous SQLE; tissue Sekisui Xenotech, LLC, Kansas City, KS; host or cells: human liver microsomes
T2 sequence (Q14534 whole entry): as above
Experimental: All biochemistry assay buffers contained 100 mM Tris, 0.1% triton X-100, 1 mM EDTA, 0.1 mM FAD and 1 mM NADPH. […] The reaction was quenched by adding 100 μL of 10 mM ammonium acetate buffer, followed by addition of 600 μL ethyl acetate containing 0.4 mg/mL butylated hydroxytoluene (BHT) to prevent oxidation. The mixture was vortexed for 30 min to extract 2,3-oxidosqualene, then centrifuged at 4000 rpm for 10 min. The supernatant was transferred to a new plate for LC-MS/MS detection. […] Kinetic analysis for HLMs (Sekisui Xenotech, LLC, Kansas City, KS) was performed as for baculosomes, with HLM concentration at 0.5 mg/ml. […] (Sigma-Aldrich). […] An aliquot of 7.5 μL was injected into the UPLC-MS/MS system. The instrument setup consisted of an AB Sciex API-6500 Mass Spectrometer (AB Sciex, USA) equipped with a Waters UPLC Acquity (Waters, USA). […] Formic acid in water (0.1%, v/v, mobile phase A) and a mixture of acetonitrile and isopropanol (80:20, v/v with 0.1% formic acid, mobile phase B) were employed as the mobile phase. An isocratic elution of 98% mobile phase B was used and run time was 1.5 min. The flow rate of mobile phase was set at 0.6 mL/min.

[4] = target: T3, SQLE (118–574) (Homo sapiens, UniProt Q14534); experiment: Thermal shift assay, N-terminally truncated SQLE (118–574); assay type: binding; conditions: 100 μM ligands
T3 construct: to the N-terminally truncated SQLE (118–574), resulting in the selection of this construct for further studies; His6-MBP (TEV site) (N, cleaved yes); made in house; host or cells: Rosetta (DE3) E. coli
T3 sequence (Q14534 118-574): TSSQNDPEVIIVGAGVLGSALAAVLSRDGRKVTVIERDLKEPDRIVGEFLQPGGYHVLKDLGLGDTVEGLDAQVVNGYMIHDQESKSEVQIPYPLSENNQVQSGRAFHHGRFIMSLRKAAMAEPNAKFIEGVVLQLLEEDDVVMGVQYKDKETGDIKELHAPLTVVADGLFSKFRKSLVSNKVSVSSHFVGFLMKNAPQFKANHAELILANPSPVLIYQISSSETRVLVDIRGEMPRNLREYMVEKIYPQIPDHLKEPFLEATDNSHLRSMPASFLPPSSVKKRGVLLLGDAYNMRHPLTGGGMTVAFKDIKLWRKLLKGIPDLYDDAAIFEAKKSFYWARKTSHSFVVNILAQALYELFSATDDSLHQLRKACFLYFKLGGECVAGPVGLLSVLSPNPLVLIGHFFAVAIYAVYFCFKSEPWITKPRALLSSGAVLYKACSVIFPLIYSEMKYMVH
Experimental: (§1) Thermal shift assays were performed in 96-well PCR plates using an RT-PCR instrument (ABI 7500 Fast, Applied Biosystems, USA). Standard assay conditions (20 μL) contain 12.5 μL protein (1 mg/mL) in storage buffer 50 mM Tris (pH 8.0), 500 mM NaCl, 5% glycerol and 100 μM corresponding ligands, 5 μL Protein Thermal Shift^TM buffer, and 2.5 μL of the ROX dye (8 × , Protein Thermal Shift^TM Dye Kit, Applied Biosystems, USA). All experiments were performed in triplicate and reaction mixtures were pre-incubated at 4 °C for 1 h. […] For the detergent screening, the SQLE protein was buffer exchanged to 500 mM NaCl, 50 mM Tris-HCl (pH 8.0) containing different detergents using Superdex^TM 200 Increase 10/300 GL gel-filtration column (GE Healthcare, USA) and assayed as described above.

[5] = target: T4, recombinant N-terminally truncated SQLE (118–574) (Homo sapiens, UniProt Q14534); experiment: Enzymatic assay with recombinant SQLE (118–574) plus recombinant P450R; assay type: biochemical; conditions: saturating squalene, varied FAD
T4 construct: First, we used the recombinant N-terminally truncated SQLE (118–574); His6-MBP (TEV site) (N, cleaved yes); made in house; host or cells: Rosetta (DE3) E. coli
T4 sequence (Q14534 118-574): as above
Excerpt: The cDNA of human SQLE (NCBI accession number: NM_003129.3) was cloned into pET28a expression vector (Supplementary Table 2). Multiple constructs were designed with six unique N-termini (starting at 1, 101, 111, 118, 124, 144) and four C-termini (ending at 488, 518, 543, 574), along with different affinity/solubilization tags expressed in Rosetta (DE3) E. coli (Shanghai Weidi Biotechnology). Soluble proteins were obtained for four of the expression constructs with N- and C-terminal boundaries corresponding to 101-574, 118-574, 101-488, and 118-488 and were used in crystallization trials. The His6-MBP-TEV-SQLE (118-574) construct in pET28a vector yielded crystals for structure determination. A detergent screen performed using thermal shift assay led to the identification of 3-[(3-cholamidopropyl)dimethylammonio]-1-propanesulfonate (CHAPS) as having the most stabilizing effect. CHAPS detergent was subsequently used for all extraction, purification and crystallization studies of SQLE protein. The plasmid bearing the sequence encoding SQLE was transformed into Rosetta (DE3) E. coli. Cells were grown at 37 °C and induced with 1 mM isopropyl β-D-1-thiogalactopyranoside for about 20 h at 15 °C in Luria Broth media. […] Protein was determined to be > 95% pure by SDS-PAGE and eluted as a monomer as assessed by SEC. […]

[6] = target: T5, SQLE (118-488) (Homo sapiens, UniProt Q14534); experiment: Thermal shift assay, SQLE (118-488); assay type: binding; conditions: 100 μM ligands
T5 construct: Thermal shift assay fluorescence signals obtained for SQLE (118-488), with and without FAD; made in house; host or cells: Rosetta (DE3) E. coli
T5 sequence (Q14534 118-488): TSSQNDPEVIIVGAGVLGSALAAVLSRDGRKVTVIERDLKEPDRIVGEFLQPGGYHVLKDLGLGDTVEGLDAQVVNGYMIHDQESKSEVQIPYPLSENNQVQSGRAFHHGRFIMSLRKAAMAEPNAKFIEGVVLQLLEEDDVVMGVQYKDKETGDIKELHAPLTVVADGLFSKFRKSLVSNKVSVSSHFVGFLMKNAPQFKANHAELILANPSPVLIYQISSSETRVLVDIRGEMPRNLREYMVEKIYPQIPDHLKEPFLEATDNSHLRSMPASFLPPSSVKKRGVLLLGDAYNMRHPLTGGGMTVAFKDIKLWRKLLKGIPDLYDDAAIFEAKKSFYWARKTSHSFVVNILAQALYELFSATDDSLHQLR
Experimental: as §1

[7] = baculosome-derived SQLE, 1 h pre-incubation, 100 μM squalene, read-out: IC50
[8] = IC50, time-dependent inhibition, before increasing incubation time, compound incubation time varied from 0 to 6 h, starting value, 15 min reaction
[9] = compound incubation time varied from 0 to 6 h

Structure (SMILES) | IC50 [1, 7] [nM] | IC50 [1, 8] [nM] | time dependence of inhibition [1, 9] | mechanism of inhibition with respect to squalene substrate [1] | IC50 [2] [nM] | other results
CCN(C/C=C/C#CC(C)(C)C)Cc1cccc(OCc2cc(-c3ccccc3)cs2)c1 [NB-598.ia] | > 100000 |  |  |  |  | 
CCN(CC#CC#CC(C)(C)OC)Cc1cccc(OC[Si](C)(C)c2cccc(C)c2)c1 [Cmpd-4′′.ia] | > 100000 |  |  |  |  | 
CCN(CC#CC#CC(C)(C)OC)Cc1cccc(OC[Si](C)(C)c2ccccc2C)c1 [Cmpd-4′′] | 69 | 800 | time-dependent inhibition | non-competitive inhibition | 10 to 60 | 
CN(C/C=C/C#CC(C)(C)C)Cc1cccc2ccccc12 [terbinafine] |  |  |  |  |  | inhibition at 100 µM ([3]; HLM assay, at 100 µM inhibitor concentration, read-out: maximal inhibition): 65%
Cc1cc2nc3c(=O)[nH]c(=O)nc-3n(C[C@H](O)[C@H](O)[C@H](O)COP(=O)(O)OP(=O)(O)OC[C@H]3O[C@@H](n4cnc5c(N)ncnc54)[C@H](O)[C@@H]3O)c2cc1C [FAD, flavin adenosine dinucleotide] |  |  |  |  |  | ΔTm ([4]; Supplementary Figure 1c): 2.1 °C; mean Tm ([4]; control Tm 48.0): 50.1 °C; Km ([1]; SQLE baculosome, saturating squalene, varied FAD): 8.1 ± 0.6 µM; Km [5]: 5.2 ± 0.5 µM; ΔTm ([6]; Supplementary Figure 1c): 4.7 °C; mean Tm ([6]; control Tm 44.0): 48.7 °C; Km ([3]; HLMs, saturating squalene, varied FAD): 9.6 ± 0.5 µM
CCN(C/C=C/C#CC(C)(C)C)Cc1cccc(OCc2cc(-c3ccsc3)cs2)c1 [NB-598] | 63 | 120 | time-dependent inhibition | non-competitive inhibition | 10 to 60 | IC50 ([1]; IC50, time-dependent inhibition, upon increasing incubation time, compound incubation time varied from 0 to 6 h, final value, 15 min reaction): 30 nM; mechanism of action (previous report) [2]: competitive
